This note sets out measurements from paper PMC7719179, “Small molecule inhibition of Dynamin-dependent endocytosis targets multiple niche signals and impairs leukemia stem cells” (Nature Communications, 2020).

Experiment [1] relates to pStat5 in leukemic DN3a cells from primary Lmo2^Tg T-ALL. As to the kind of experiment: IL-7-induced pStat5 in leukemic DN3a cells from primary Lmo2^Tg T-ALL. Format: cell-based, mouse. The method, then: (§1) Phosphoflow analysis was performed as previously described. Briefly, 2 × 10^6 cells stained for surface markers were subsequently resuspended into PBS 1× + 4% v/v paraformaldehyde and incubated for 10 min at 4 °C for fixation. Fixed cells were washed twice using PBS 1×, then resuspended in pre-chilled at −20 °C Perm Buffer III (BD Pharmingen) and incubated 30 min at 4 °C for permeabilization. Cells were washed twice using PBS 1× and incubated overnight at 4 °C in PBS 1× + 2% v/v fetal calf serum (FCS) with Cell Signalling purified antibodies (Genesearch Pty Ltd, Arundel QLD, Australia) against pSTAT5 (Tyr694; #9359), phospho-p38 MAPK (Thr180/Tyr182; #4511), phospho-p44/42 (Erk1/2; #9102), phospho-S6 (Ser235/236; #4856) and phospho-Akt (Ser473; #9271) or isotype control. For intracellular HES1 detection, cells stained for surface markers were subsequently fixed and permeabilized using the BD Cytofix/Cytoperm^TM Kit and incubated overnight at 4 °C in PBS 1× + 2% v/v FCS with a purified antibody against HES1 (D6PU; #11988, Cell Signalling) or isotype control. After staining with primary antibodies for phosphoflow or intracellular detection, cells were incubated in permeabilization buffer with donkey Alexa Fluor 488-conjugated anti-rabbit secondary antibody (A-21206, lot #1910751, Molecular Probes, Invitrogen) or goat Alexa Fluor 546-conjugated anti-rabbit secondary antibody (A-11035, lot #1904467, Molecular Probes, Invitrogen) for 1 h on ice, and washed twice in PBS 1×. Fluorescence-activated cell sorting (FACS) analysis was performed using LSRII and LSR Fortessa cytometers, following the gating strategies described in Supplementary Fig. 11. Cell sorting was performed with a FACSAria or BD Influx.
For in vitro IL-7 stimulation assays, cells were starved in serum-free DMEM at 37 °C, then incubated with either vehicle or Dynole 34-2 or Ruxolitinib (INCB018424; #S1378, Selleckchem), or DAPT (GSI-IX; #S2215, Selleckchem) resuspended in DMSO for 1 h. Thymocytes were subsequently stimulated with 25 ng/mL IL-7 at 37 °C for 20 min and washed twice using cold PBS 1×. Cells were incubated with 25 ng/mL Rat IgG (Sigma-Aldrich Pty Ltd, Castle Hill NSW, Australia) and with a PE-conjugated antibody for detection of IL-7R (CD127) for 1 h on ice, as described in the FACS analysis section. PE-conjugated isotype was used as negative control. Cells were washed twice, fixed and phosphoflow analysis performed as described in the FACS analysis section. The analysis was performed in triplicate and the mean fluorescence intensity (MFI) observed without stimulation was reported as 100%.

Experiment [2] deals with Hes1 in leukemic DN3a cells from primary Lmo2^Tg T-ALL. Kind of experiment: Notch1 (DL1)-induced Hes1 in leukemic DN3a cells from primary Lmo2^Tg T-ALL. Format: cell-based, mouse. The method, then:
as §1
For in vitro NOTCH1 signalling activation assays, cells were seeded on OP9 and OP9-DL1 stromal cell lines as described in the co-culture assays section and incubated overnight with either Dynole 34-2 or Ruxolitinib or DAPT resuspended in DMSO. Harvested cells were washed twice using cold PBS 1× and incubated with 25 ng/mL Rat IgG (Sigma-Aldrich Pty Ltd, Castle Hill NSW, Australia) with a PE-conjugated antibody for detection of NOTCH1 for 1 h on ice, as described in the FACS analysis section. PE-conjugated isotype was used as negative control. Cells were washed twice, fixed and analysed for intracellular HES1 detection by flow cytometry as described in the FACS analysis section. The analysis was performed in triplicate and the MFI observed in thymocytes co-cultured on OP9 cells was reported as 100%.

Where [3] appears, read: leukemic DN3a cells of TALL249, IL-7 stimulation.
Where [4] appears, read: leukemic DN3a cells of TALL257, IL-7 stimulation.
Where [5] appears, read: leukemic DN3a cells of TALL273, IL-7 stimulation.
Setting [6] is: leukemic DN3a cells of TALL582, IL-7 stimulation.
The mark [7] stands for this setting: leukemic DN3a cells of TALL588, IL-7 stimulation.
Where [8] appears, read: leukemic DN3a cells of TALL742, IL-7 stimulation.
Where [9] appears, read: leukemic DN3a cells of TALL249, Notch1 (DL1) stimulation.
Where [10] appears, read: leukemic DN3a cells of TALL257, Notch1 (DL1) stimulation.
[11] abbreviates: leukemic DN3a cells of TALL273, Notch1 (DL1) stimulation.
[12] abbreviates: leukemic DN3a cells of TALL582, Notch1 (DL1) stimulation.
Setting [13] is: leukemic DN3a cells of TALL588, Notch1 (DL1) stimulation.
Where [14] appears, read: leukemic DN3a cells of TALL742, Notch1 (DL1) stimulation.

In the case of `C[C@H](NC(=O)Cc1cc(F)cc(F)c1)C(=O)N[C@H](C(=O)OC(C)(C)C)c1ccccc1` [DAPT, N-[N-(3,5-Difluorophenacetyl)-L-alanyl]-S-phenylglycine t-butyl ester], the “pStat5 (MFI)” value in experiment [1] (setting [3]) came to 15113 MFI; in experiment [1] (setting [4]) it was 2628 MFI; in experiment [1] (setting [5]), 2744 MFI; in experiment [1] (setting [6]) it was 34040 MFI; in experiment [1] (setting [7]) it was 3980 MFI; in experiment [1] (setting [8]) it was 7661 MFI. The “pStat5, FOLD over unstimulated” value in experiment [1] (setting [3]) turned out to be 3.80 fold; in experiment [1] (setting [4]) it was 1.69 fold; in experiment [1] (setting [5]), 1.22 fold; in experiment [1] (setting [6]), 0.89 fold; in experiment [1] (setting [7]) it was 1.55 fold; in experiment [1] (setting [8]), 1.35 fold. Also, the “Hes1 (MFI)” value in experiment [2] (setting [9]) amounted to 6973 MFI; in experiment [2] (setting [10]) it was 4801 MFI; in experiment [2] (setting [11]), 7737 MFI; in experiment [2] (setting [12]), 5294 MFI; in experiment [2] (setting [13]) it was 6134 MFI; in experiment [2] (setting [14]), 7313 MFI. Moreover, the “Hes1, FOLD over unstimulated” value stood at 0.92 fold in experiment [2] (setting [9]); 0.84 fold in experiment [2] (setting [10]); 0.92 fold in experiment [2] (setting [11]); 0.98 fold in experiment [2] (setting [12]); 1.12 fold in experiment [2] (setting [13]); 0.93 fold in experiment [2] (setting [14]).
As to `N#CC[C@H](C1CCCC1)n1cc(-c2ncnc3[nH]ccc23)cn1` [Ruxolitinib], the “pStat5 (MFI)” value in experiment [1] (setting [3]) is 2437 MFI; in experiment [1] (setting [4]), 2111 MFI; in experiment [1] (setting [5]), 2300 MFI; in experiment [1] (setting [6]) it was 33429 MFI; in experiment [1] (setting [7]), 3772 MFI; in experiment [1] (setting [8]) it was 5460 MFI. For the same molecule, the “pStat5, FOLD over unstimulated” value in experiment [1] (setting [3]) was 0.61 fold; in experiment [1] (setting [4]), 1.36 fold; in experiment [1] (setting [5]), 1.02 fold; in experiment [1] (setting [6]), 0.88 fold; in experiment [1] (setting [7]), 1.47 fold; in experiment [1] (setting [8]), 0.96 fold. Further, the “Hes1 (MFI)” value in experiment [2] (setting [9]) is listed as 8215 MFI; in experiment [2] (setting [10]), 8036 MFI; in experiment [2] (setting [11]), 8741 MFI; in experiment [2] (setting [12]) it was 6452 MFI; in experiment [2] (setting [13]) it was 8104 MFI; in experiment [2] (setting [14]) it was 10321 MFI. Further, the “Hes1, FOLD over unstimulated” value in experiment [2] (setting [9]) is recorded as 1.09 fold; in experiment [2] (setting [10]), 1.41 fold; in experiment [2] (setting [11]) it was 1.04 fold; in experiment [2] (setting [12]) it was 1.20 fold; in experiment [2] (setting [13]), 1.48 fold; in experiment [2] (setting [14]) it was 1.31 fold.
On to `CCCCCCCCNC(=O)C(C#N)=Cc1cn(CCCN(C)C)c2ccccc12` [Dynole 34-2, 2-Cyano-N-octyl-3-(1-(3-dimethylaminopropyl)-1H-indol-3-yl)-acrylamide], for which the “pStat5 (MFI)” value in experiment [1] (setting [3]) was 3097 MFI; in experiment [1] (setting [4]), 1676 MFI; in experiment [1] (setting [5]), 2251 MFI; in experiment [1] (setting [6]), 15189 MFI; in experiment [1] (setting [7]), 2662 MFI; in experiment [1] (setting [8]), 5864 MFI. Also, the “pStat5, FOLD over unstimulated” value in experiment [1] (setting [3]) is 0.78 fold; in experiment [1] (setting [4]) it was 1.08 fold; in experiment [1] (setting [5]), 1.00 fold; in experiment [1] (setting [6]) it was 0.40 fold; in experiment [1] (setting [7]) it was 1.03 fold; in experiment [1] (setting [8]), 1.03 fold. The “Hes1 (MFI)” value in experiment [2] (setting [9]) is recorded as 7095 MFI; in experiment [2] (setting [10]), 5988 MFI; in experiment [2] (setting [11]), 7679 MFI; in experiment [2] (setting [12]) it was 5082 MFI; in experiment [2] (setting [13]) it was 7974 MFI; in experiment [2] (setting [14]) it was 7594 MFI. Besides, the “Hes1, FOLD over unstimulated” value in experiment [2] (setting [9]) amounted to 0.94 fold; in experiment [2] (setting [10]), 1.05 fold; in experiment [2] (setting [11]), 0.92 fold; in experiment [2] (setting [12]), 0.94 fold; in experiment [2] (setting [13]), 1.46 fold; in experiment [2] (setting [14]), 0.96 fold.
